Data as given in PubChem BioAssay AID330 (DTP/NCI, 2004).
“And” between values parts separate entries of the source, which are not always exact repeats. Equal values may be shown once. Inconclusive results and toxic doses are left out. The calls were made as follows: active = survival T/C of 150% or more; inactive = T/C below 125% in these data.

Test system: P388 leukemia ip, CD2F1 mice, survival T/C
Experiment: NCI In Vivo Anticancer Drug Screen. Data for tumor model P388 Leukemia (intraperitoneal) in CD2F1 (CDF1) mice
Details: endpoint: median survival time, higher = longer survival
Method in brief: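 Mice carrying the transplanted tumor received test compound or vehicle. Survival was recorded in each group, and the value is the treated-group measurement divided by that of the vehicle-treated control group.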

[1] = dose: 50.0 mg/kg/injection, schedule: Q01DX005 (ip), vehicle: saline
[2] = dose: 100.0 mg/kg/injection, schedule: Q01DX009 (ip), vehicle: saline
[3] = dose: 50.0 mg/kg/injection, schedule: Q01DX005 (ip), vehicle: saline with Tween-80
[4] = dose: 100.0 mg/kg/injection, schedule: Q01DX005 (ip), vehicle: saline with Tween-80
[5] = dose: 200.0 mg/kg/injection, schedule: Q01DX005 (ip), vehicle: saline with Tween-80
[6] = dose: 50.0 mg/kg/injection, schedule: Q01DX009 (ip), vehicle: Klucel (hydroxypropylcellulose) (HPC)
[7] = dose: 100.0 mg/kg/injection, schedule: Q01DX009 (ip), vehicle: Klucel (hydroxypropylcellulose) (HPC)
[8] = dose: 200.0 mg/kg/injection, schedule: Q01DX009 (ip), vehicle: Klucel (hydroxypropylcellulose) (HPC)
[9] = dose: 60.0 mg/kg/injection, schedule: Q01DX005 (ip), vehicle: saline with Tween-80
[10] = dose: 120.0 mg/kg/injection, schedule: Q01DX005 (ip), vehicle: saline with Tween-80
[11] = dose: 240.0 mg/kg/injection, schedule: Q01DX005 (ip), vehicle: saline with Tween-80

Measured: T/C

CN(C)C(P1(=O)OC(C)(C)C(C)(C)O1)P1(=O)OC(C)(C)C(C)(C)O1
inactive: [1] 104 % of control | dose: 100.0 mg/kg/injection, schedule: Q01DX005 (ip), vehicle: saline 99 % of control | dose: 200.0 mg/kg/injection, schedule: Q01DX005 (ip), vehicle: saline 98 % of control

Cc1c2oc3c(C)ccc(C(=O)NC(C(=O)NC(C(=O)O)C(C)C)C(C)O)c3nc-2c(C(=O)NC(C(=O)NC(C(=O)O)C(C)C)C(C)O)c(N)c1=O (stereo not given)
inactive: dose: 0.05 mg/kg/injection, schedule: Q01DX009 (ip), vehicle: water 100 % of control | dose: 0.1 mg/kg/injection, schedule: Q01DX009 (ip), vehicle: water 97 % of control | dose: 0.2 mg/kg/injection, schedule: Q01DX009 (ip), vehicle: water 94 % of control | dose: 0.4 mg/kg/injection, schedule: Q01DX009 (ip), vehicle: water 99 % of control | dose: 0.8 mg/kg/injection, schedule: Q01DX009 (ip), vehicle: water 97 % of control | dose: 1.6 mg/kg/injection, schedule: Q01DX009 (ip), vehicle: water 102 % of control

COCC1OC(OC2OCC3OC4(OCC(O)(C(C)OC)C5OCOC54)OC3C2OC)C(OC)C(O)C1OC1OC(C)C(OC)C(OC2OC(C)C3OC4(CC(O)C(OC5CC(OC6CC(C)([N+](=O)[O-])C(OC)C(C)O6)C(OC(=O)c6c(C)c(Cl)c(O)c(Cl)c6OC)C(C)O5)C(C)O4)OC3(C)C2O)C1O (stereo not given)
inactive: dose: 12.5 mg/kg/injection, schedule: Q01DX009 (ip), vehicle: saline 118 % of control | dose: 25.0 mg/kg/injection, schedule: Q01DX009 (ip), vehicle: saline 103 % of control | dose: 50.0 mg/kg/injection, schedule: Q01DX009 (ip), vehicle: saline 98 % of control | [2] 105 % of control

CCCCCN(CCCCC)CCCNc1c2c(nc3ccc(Cl)cc13)CCCC2
inactive: dose: 12.5 mg/kg/injection, schedule: Q01DX005 (ip), vehicle: saline 95 % of control | dose: 25.0 mg/kg/injection, schedule: Q01DX005 (ip), vehicle: saline 104 % of control | [1] 104 % of control and 107 % of control

Cc1cc(C)n2nc3c4ccsc4ncc3c2n1
inactive: dose: 25.0 mg/kg/injection, schedule: Q04DX002 (ip), vehicle: saline with Tween-80 105 % of control and 95 % of control | dose: 50.0 mg/kg/injection, schedule: Q04DX002 (ip), vehicle: saline with Tween-80 99 % of control and 105 % of control | dose: 100.0 mg/kg/injection, schedule: Q04DX002 (ip), vehicle: saline with Tween-80 116 % of control and 118 % of control and 119 % of control

COC(=O)N1CC2[C@H](O)[C@H](O)C1ON2c1ccccc1 (stereo not given in full)
inactive: dose: 60.0 mg/kg/injection, schedule: Q01DX005 (ip), vehicle: Klucel (hydroxypropylcellulose) (HPC) 101 % of control | dose: 120.0 mg/kg/injection, schedule: Q01DX005 (ip), vehicle: Klucel (hydroxypropylcellulose) (HPC) 94 % of control | dose: 240.0 mg/kg/injection, schedule: Q01DX005 (ip), vehicle: Klucel (hydroxypropylcellulose) (HPC) 93 % of control

C=C(C)[C@H]1Cc2c(ccc3c2O[C@@H]2COc4cc(OC)c(OC)cc4[C@@H]2C3=O)O1
inactive: dose: 1.5 mg/kg/injection, schedule: Q01DX009 (ip), vehicle: saline with Tween-80 110 % of control | dose: 1.5 mg/kg/injection, schedule: Q04DX003 (ip), vehicle: saline with Tween-80 100 % of control | dose: 3.0 mg/kg/injection, schedule: Q01DX009 (ip), vehicle: saline with Tween-80 115 % of control | dose: 3.0 mg/kg/injection, schedule: Q04DX003 (ip), vehicle: saline with Tween-80 100 % of control | dose: 6.0 mg/kg/injection, schedule: Q01DX009 (ip), vehicle: saline with Tween-80 120 % of control | dose: 6.0 mg/kg/injection, schedule: Q04DX003 (ip), vehicle: saline with Tween-80 104 % of control | dose: 12.5 mg/kg/injection, schedule: Q01DX001 (ip), vehicle: saline with Tween-80 110 % of control | dose: 25.0 mg/kg/injection, schedule: Q01DX001 (ip), vehicle: saline with Tween-80 114 % of control | dose: 50.0 mg/kg/injection, schedule: Q01DX001 (ip), vehicle: saline with Tween-80 112 % of control

COC(=O)c1c(C(N)=O)c(C)n(NC(=O)Nc2ccccc2)c1C
inactive: [3] 96 % of control | [4] 89 % of control | [5] 94 % of control

CC(C)COC(=O)NC(C(=O)N(C(=O)NC1CCCCC1)C1CCCCC1)C(C)C (stereo not given)
inactive: dose: 50.0 mg/kg/injection, schedule: Q01DX005 (ip), vehicle: Klucel (hydroxypropylcellulose) (HPC) 100 % of control | dose: 100.0 mg/kg/injection, schedule: Q01DX005 (ip), vehicle: Klucel (hydroxypropylcellulose) (HPC) 95 % of control | dose: 200.0 mg/kg/injection, schedule: Q01DX005 (ip), vehicle: Klucel (hydroxypropylcellulose) (HPC) 95 % of control

Cc1ccc(C2C(C#N)C(=O)NC(=O)C2C#N)cc1 (stereo not given)
inactive: [6] 100 % of control | [7] 108 % of control | [8] 99 % of control

CN=C(NN(C)C)c1ccc(NC(=O)c2ccc(C(=O)Nc3ccc(C(=NC)NN(C)C)cc3)cc2)cc1
inactive: dose: 3.3 mg/kg/injection, schedule: Q01DX009 (ip), vehicle: saline with Tween-80 115 % of control | dose: 4.3 mg/kg/injection, schedule: Q01DX009 (ip), vehicle: saline with Tween-80 118 % of control | dose: 13.2 mg/kg/injection, schedule: Q04DX003 (ip), vehicle: saline with Tween-80 91 % of control

O=C1CCC(=O)N1CN1CCCCC1
inactive: dose: 60.0 mg/kg/injection, schedule: Q01DX005 (ip), vehicle: saline 93 % of control | dose: 120.0 mg/kg/injection, schedule: Q01DX005 (ip), vehicle: saline 113 % of control | dose: 240.0 mg/kg/injection, schedule: Q01DX005 (ip), vehicle: saline 118 % of control

CC(C)(C)c1cc(C(=O)O)c(S)c(C(=O)O)c1
inactive: [6] 104 % of control and 109 % of control | [7] 102 % of control and 100 % of control | [8] 93 % of control

O=C1CSC(=S)N1c1ccc(C(F)(F)F)cc1
inactive: dose: 25.0 mg/kg/injection, schedule: Q01DX001 (ip), vehicle: Klucel (hydroxypropylcellulose) (HPC) 93 % of control | dose: 50.0 mg/kg/injection, schedule: Q01DX001 (ip), vehicle: Klucel (hydroxypropylcellulose) (HPC) 99 % of control | dose: 100.0 mg/kg/injection, schedule: Q01DX001 (ip), vehicle: Klucel (hydroxypropylcellulose) (HPC) 110 % of control

C(=Nc1ccccc1)Nc1ccccc1.[Cu+2]
inactive: dose: 6.25 mg/kg/injection, schedule: Q01DX009 (ip), vehicle: saline with Tween-80 100 % of control | dose: 12.5 mg/kg/injection, schedule: Q01DX009 (ip), vehicle: saline with Tween-80 104 % of control and 108 % of control

CCOC(=O)NC(Cc1cc(OC)c(OC)cc1Br)c1ccc(OC)c(OC)c1OC (stereo not given)
inactive: dose: 100.0 mg/kg/injection, schedule: Q01DX001 (ip), vehicle: saline with Tween-80 91 % of control | dose: 200.0 mg/kg/injection, schedule: Q01DX001 (ip), vehicle: saline with Tween-80 94 % of control | dose: 400.0 mg/kg/injection, schedule: Q01DX001 (ip), vehicle: saline with Tween-80 91 % of control

CCCCCCC(O)C/C=C\CCCCCCCC(=O)O (stereo not given)
inactive: [6] 107 % of control | [7] 107 % of control | [8] 102 % of control | dose: 400.0 mg/kg/injection, schedule: Q01DX009 (ip), vehicle: Klucel (hydroxypropylcellulose) (HPC) 95 % of control

CCOC(=O)Nc1cc2c(c(N)n1)N=C(c1ccc(C)cc1C)CN2
inactive: dose: 5.0 mg/kg/injection, schedule: Q01DX005 (ip), vehicle: saline with Tween-80 109 % of control | dose: 10.0 mg/kg/injection, schedule: Q01DX005 (ip), vehicle: saline with Tween-80 115 % of control | dose: 20.0 mg/kg/injection, schedule: Q01DX005 (ip), vehicle: saline with Tween-80 123 % of control

CSC(=Nc1ccc(N(C)C)cc1)NC#N
inactive: [6] 106 % of control | [7] 103 % of control | [8] 92 % of control

CCOC(=O)C(Cc1ccc(O)c(C#N)c1)NC(C)=O (stereo not given)
inactive: [3] 97 % of control | [4] 97 % of control | [5] 95 % of control

CCOCC(=O)OCC
inactive: [2] 105 % of control | dose: 200.0 mg/kg/injection, schedule: Q01DX009 (ip), vehicle: saline 101 % of control | dose: 400.0 mg/kg/injection, schedule: Q01DX009 (ip), vehicle: saline 102 % of control

COc1ccccc1NC(=O)CC(=O)N1N=C(N(c2ccccc2)c2ccccc2)CC1c1ccccc1 (stereo not given)
inactive: [9] 108 % of control | [10] 107 % of control | [11] 96 % of control

CC(C)(C)c1cc(C(c2cc3c(cc2O)OCO3)N2CCOCC2)cc(C(C)(C)C)c1O (stereo not given)
inactive: [9] 102 % of control and 111 % of control and 112 % of control | [10] 105 % of control and 111 % of control and 115 % of control | [11] 104 % of control | dose: 480.0 mg/kg/injection, schedule: Q01DX005 (ip), vehicle: saline with Tween-80 123 % of control
